Assay results as given in patent publication US20110097274A1, “Carbon-11 and fluorine-18 labeled radioligands for positron emission tomography (PET) imaging for the brain serotonin transporters” (priority 2002, published 2011).
Read-outs that look alike come from different tables or passages of the source.

Assays:
[1] = Biodistribution of labeled radioligands in male Sprague-Dawley rats; assay type: in vivo; details: mean ± SD, n = 3
Description: Appropriately labeled compounds were studied in animals to assess their binding characteristics in the brain. Procedures for these biodistribution studies are as follows. […] The brain regions (cerebellum, hippocampus, striatum, frontal cortex, thalamus and hypothalamus), along with samples of blood and part of the tail, were removed, weighed, and counted in a Packard Cobra II gamma counter. The percent injected dose (% ID) of the decay- and tail-corrected activity in the brain regions and blood were calculated based upon C-11 standards prepared from the injection solution, and the % ID/g were calculated using the tissue weights.

[2] = system: SERT; experiment: Experiment 5: PET brain imaging of ^11C and ^18F labeled AFM, AFA, AFE in one baboon; assay type: in vivo; details: one adult male baboon, n = 1 to 4 scans, two-compartment model
Method: (§1) General scanning methods were as described in Huang et al. (2002). Arterial input function was measured and corrected for metabolites.
Activity distributed in the brain in accordance to the known density distribution pattern of SERT (Laruelle et al., 1988). […] Data were analyzed with a two-compartment model, using the metabolite-corrected arterial time-activity curve as input function. This analysis provided the regional distribution volumes (VT, mL/g).
The nonspecific distribution volume, measured as the distribution volume of the cerebellum (a region with negligible SERT density) was in a similar range for all tracers (10 to 30 mL/g, Table 16).
The specific to nonspecific partition coefficient, V3″, was calculated as the ratio of VT in the region of interest (ROI) to cerebellum VT minus one. V3″ provides a measure related to receptor parameters as follows: […]

[3] = Experiment 5: plasma clearance of ^11C and ^18F labeled AFM, AFA, AFE in one baboon; assay type: in vivo; details: one adult male baboon, n = 1 to 4 scans
Method: as §1

[4] = target: T1, serotonin transporter (SERT) (Rattus norvegicus, UniProt P31652); experiment: In vitro binding affinity for SERT, radioligand [^3H]paroxetine (Table 1); design: species or system rat or human (cloned)
T1 construct: membranes prepared from either the rat cortical tissues or cells expressed with cloned-human transporters; from tissue; host or cells: rat cortical tissue membranes (inferred; the alternative is cells expressing cloned human SERT)
T1 sequence (P31652 whole entry): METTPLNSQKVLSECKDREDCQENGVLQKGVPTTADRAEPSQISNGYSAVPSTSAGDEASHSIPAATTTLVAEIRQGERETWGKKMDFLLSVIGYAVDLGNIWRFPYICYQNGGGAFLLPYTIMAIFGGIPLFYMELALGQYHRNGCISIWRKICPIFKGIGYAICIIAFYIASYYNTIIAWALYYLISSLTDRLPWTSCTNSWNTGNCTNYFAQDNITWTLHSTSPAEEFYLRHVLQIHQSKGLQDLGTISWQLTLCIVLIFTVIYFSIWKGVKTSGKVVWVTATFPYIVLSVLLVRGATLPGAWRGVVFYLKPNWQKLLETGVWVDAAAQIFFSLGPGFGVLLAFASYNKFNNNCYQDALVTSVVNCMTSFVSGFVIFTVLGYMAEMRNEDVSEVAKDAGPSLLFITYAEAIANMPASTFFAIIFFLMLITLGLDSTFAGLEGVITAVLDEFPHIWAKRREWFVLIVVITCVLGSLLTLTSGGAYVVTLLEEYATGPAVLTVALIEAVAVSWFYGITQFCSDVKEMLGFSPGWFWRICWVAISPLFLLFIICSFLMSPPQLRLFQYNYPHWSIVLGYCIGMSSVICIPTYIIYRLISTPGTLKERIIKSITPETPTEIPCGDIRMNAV
Method: (§2) Selected compounds were assayed in vitro for their binding affinity for the dopamine transporter (DAT), serotonin transporter (SERT), and norepinephrine transporter (NET) using membranes prepared from either the rat cortical tissues or cells expressed with cloned-human transporters and radioligands. Radioligands used were [^3H]paroxetine (SERT), [^3H]nisoxetine (NET), and [^3H]GBR12935 (DAT).

[5] = target: T2, dopamine transporter (DAT) (Homo sapiens, UniProt Q01959); experiment: In vitro binding affinity for DAT, radioligand [^3H]GBR12935 (Table 1); design: species or system rat or human (cloned)
T2 construct: host or cells: either rat cortical tissue or cells expressing the cloned human transporter
T2 sequence (Q01959 whole entry, species assumed): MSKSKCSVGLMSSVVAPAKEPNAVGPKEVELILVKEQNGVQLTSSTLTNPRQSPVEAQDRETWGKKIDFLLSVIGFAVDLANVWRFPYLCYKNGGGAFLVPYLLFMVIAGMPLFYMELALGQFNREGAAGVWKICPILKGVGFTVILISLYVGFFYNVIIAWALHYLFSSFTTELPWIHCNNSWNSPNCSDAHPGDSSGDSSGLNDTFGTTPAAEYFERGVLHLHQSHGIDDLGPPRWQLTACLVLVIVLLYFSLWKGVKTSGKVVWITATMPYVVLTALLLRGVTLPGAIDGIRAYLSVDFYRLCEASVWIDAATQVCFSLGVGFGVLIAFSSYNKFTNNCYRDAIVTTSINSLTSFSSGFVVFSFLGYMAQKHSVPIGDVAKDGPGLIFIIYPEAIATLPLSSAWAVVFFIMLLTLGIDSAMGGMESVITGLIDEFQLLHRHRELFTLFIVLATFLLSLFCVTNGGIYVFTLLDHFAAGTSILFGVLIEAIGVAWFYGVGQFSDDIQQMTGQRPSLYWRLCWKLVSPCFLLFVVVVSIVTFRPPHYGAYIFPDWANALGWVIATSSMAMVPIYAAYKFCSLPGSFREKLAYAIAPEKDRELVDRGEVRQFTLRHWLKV
Method: as §2

[6] = target: T3, norepinephrine transporter (NET) (Homo sapiens, UniProt P23975); experiment: In vitro binding affinity for NET, radioligand [^3H]nisoxetine (Table 1); design: species or system rat or human (cloned)
T3 construct: host or cells: either rat cortical tissue or cells expressing the cloned human transporter
T3 sequence (P23975 whole entry, species assumed): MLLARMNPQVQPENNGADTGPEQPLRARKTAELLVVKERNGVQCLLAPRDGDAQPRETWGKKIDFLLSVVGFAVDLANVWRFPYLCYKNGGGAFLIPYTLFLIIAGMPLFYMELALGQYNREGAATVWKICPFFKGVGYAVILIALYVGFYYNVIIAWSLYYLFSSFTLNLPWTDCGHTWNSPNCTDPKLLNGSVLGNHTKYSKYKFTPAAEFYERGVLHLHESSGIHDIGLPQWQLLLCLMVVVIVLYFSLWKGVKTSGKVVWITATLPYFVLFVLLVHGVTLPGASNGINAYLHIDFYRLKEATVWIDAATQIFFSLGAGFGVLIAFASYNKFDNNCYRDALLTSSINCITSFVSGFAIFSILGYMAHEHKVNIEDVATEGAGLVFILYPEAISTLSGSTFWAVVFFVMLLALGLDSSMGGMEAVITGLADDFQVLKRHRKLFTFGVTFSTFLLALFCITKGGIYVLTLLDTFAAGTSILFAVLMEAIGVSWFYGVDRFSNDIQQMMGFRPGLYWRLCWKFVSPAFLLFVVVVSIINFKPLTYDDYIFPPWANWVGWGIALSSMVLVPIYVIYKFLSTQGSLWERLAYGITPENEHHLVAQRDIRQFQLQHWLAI
Method: as §2

Row | SMILES | % ID/g Blood ([1]; 10 min post-injection) [% ID/g] | % ID/g Cerebellum ([1]; 10 min post-injection) [% ID/g] | % ID/g Frontal Ctx. ([1]; 10 min post-injection) [% ID/g] | % ID/g Hippocamp. ([1]; 10 min post-injection) [% ID/g] | % ID/g Hypothal. ([1]; 10 min post-injection) [% ID/g] | % ID/g Striatum ([1]; 10 min post-injection) [% ID/g] | % ID/g Thalamus ([1]; 10 min post-injection) [% ID/g] | % ID/g Blood ([1]; 30 min post-injection) [% ID/g] | % ID/g Cerebellum ([1]; 30 min post-injection) [% ID/g] | % ID/g Frontal Ctx. ([1]; 30 min post-injection) [% ID/g] | % ID/g Hippocamp. ([1]; 30 min post-injection) [% ID/g] | % ID/g Hypothal. ([1]; 30 min post-injection) [% ID/g] | % ID/g Striatum ([1]; 30 min post-injection) [% ID/g] | % ID/g Thalamus ([1]; 30 min post-injection) [% ID/g] | % ID/g Blood ([1]; 60 min post-injection) [% ID/g] | % ID/g Cerebellum ([1]; 60 min post-injection) [% ID/g] | % ID/g Frontal Ctx. ([1]; 60 min post-injection) [% ID/g] | % ID/g Hippocamp. ([1]; 60 min post-injection) [% ID/g] | % ID/g Hypothal. ([1]; 60 min post-injection) [% ID/g] | % ID/g Striatum ([1]; 60 min post-injection) [% ID/g] | also measured
1 | CN(C)Cc1ccccc1Sc1ccc(CCF)cc1N [[^11C]AFE, [^11C]2-[2-(Dimethylaminomethyl)phenylthio]-5-fluoroethylphenylamine] | 0.15 ± 0.03 | 0.31 ± 0.03 | 0.61 ± 0.07 | 0.44 ± 0.04 | 0.61 ± 0.11 | 0.58 ± 0.08 | 0.63 ± 0.08 | 0.07 ± 0.01 | 0.12 ± 0.00 | 0.39 ± 0.03 | 0.31 ± 0.03 | 0.44 ± 0.04 | 0.35 ± 0.05 | 0.44 ± 0.05 | 0.05 ± 0.01 | 0.05 ± 0.00 | 0.19 ± 0.02 | 0.18 ± 0.02 | 0.29 ± 0.03 | 0.19 ± 0.02 | % ID/g Thalamus ([1]; 60 min post-injection): 0.22 ± 0.01 % ID/g; Cerebellum V (nonspecific distribution volume) [2]: 16 mL/g; Clearance [3]: 73 L/h
2 | Cc1ccc(Sc2ccccc2CN(C)C)c(N)c1 [MADAM, 2-(2-(Dimethylaminomethyl)phenylthio)-5-methylphenylamine] |  |  |  |  |  |  |  |  |  |  |  |  |  |  |  |  |  |  |  |  | Ki [4]: 1.19 nM; Ki [5]: > 10000 nM; Ki [6]: 320 nM
3 | CN(C)Cc1ccccc1Sc1ccc(CCF)cc1N [AFE, 2-(2-(Dimethylaminomethyl)phenylthio)-5-(2-fluoroethyl)phenylamine] |  |  |  |  |  |  |  |  |  |  |  |  |  |  |  |  |  |  |  |  | Ki [4]: 1.88 nM; Ki [5]: > 10000 nM; Ki [6]: 946 nM
4 | Cc1ccc(Sc2ccccc2CN(C)[11CH3])c(N)c1 [[^11C]MADAM, [^11C]2-[2-(Dimethylaminomethyl)phenylthio]-5-methylphenylamine] | 0.61 ± 0.15 | 1.04 ± 0.33 | 2.17 ± 0.78 | 1.39 ± 0.29 | 1.93 ± 0.72 | 1.57 ± 0.54 | 1.95 ± 0.61 | 0.26 ± 0.07 | 0.55 ± 0.04 | 1.78 ± 0.23 | 1.14 ± 0.17 | 1.48 ± 0.22 | 1.41 ± 0.21 | 1.66 ± 0.17 | 0.15 ± 0.04 | 0.27 ± 0.01 | 0.89 ± 0.07 | 0.84 ± 0.27 | 1.39 ± 0.28 | 0.81 ± 0.15 | % ID/g Thalamus ([1]; 60 min post-injection): 1.14 ± 0.18 % ID/g
5 | CN(C)Cc1ccccc1Sc1ccc([18F])cc1N [[^18F]AFA, [^18F]2-[2-(Dimethylaminomethyl)phenylthio]-5-fluorophenylamine] | 0.27 ± 0.01 | 0.38 ± 0.09 | 0.81 ± 0.26 | 0.54 ± 0.17 | 0.73 ± 0.26 | 0.65 ± 0.18 | 0.72 ± 0.24 | 0.16 ± 0.01 | 0.20 ± 0.01 | 0.65 ± 0.08 | 0.48 ± 0.02 | 0.66 ± 0.05 | 0.58 ± 0.05 | 0.69 ± 0.03 | 0.09 ± 0.00 | 0.07 ± 0.01 | 0.28 ± 0.05 | 0.23 ± 0.04 | 0.38 ± 0.03 | 0.26 ± 0.02 | % ID/g Thalamus ([1]; 60 min post-injection): 0.34 ± 0.05 % ID/g; % ID/g Blood ([1]; 90 min post-injection): 0.08 ± 0.01 % ID/g; % ID/g Cerebellum ([1]; 90 min post-injection): 0.05 ± 0.01 % ID/g; % ID/g Frontal Ctx. ([1]; 90 min post-injection): 0.20 ± 0.02 % ID/g; % ID/g Hippocamp. ([1]; 90 min post-injection): 0.18 ± 0.01 % ID/g; % ID/g Hypothal. ([1]; 90 min post-injection): 0.30 ± 0.06 % ID/g; % ID/g Striatum ([1]; 90 min post-injection): 0.19 ± 0.01 % ID/g; % ID/g Thalamus ([1]; 90 min post-injection): 0.23 ± 0.05 % ID/g; % ID/g Blood ([1]; 120 min post-injection): 0.07 ± 0.01 % ID/g; % ID/g Cerebellum ([1]; 120 min post-injection): 0.04 ± 0.00 % ID/g; % ID/g Frontal Ctx. ([1]; 120 min post-injection): 0.11 ± 0.02 % ID/g; % ID/g Hippocamp. ([1]; 120 min post-injection): 0.10 ± 0.01 % ID/g; % ID/g Hypothal. ([1]; 120 min post-injection): 0.17 ± 0.01 % ID/g; % ID/g Striatum ([1]; 120 min post-injection): 0.11 ± 0.02 % ID/g; % ID/g Thalamus ([1]; 120 min post-injection): 0.16 ± 0.02 % ID/g; Cerebellum V (nonspecific distribution volume) [2]: 24 mL/g; Clearance [3]: 68 L/h
6 | CN(C)Cc1ccccc1Sc1ccc(CCCF)cc1N [AFP, 2-(2-(Dimethylaminomethyl)phenylthio)-5-(3-fluoropropyl)-phenylamine] |  |  |  |  |  |  |  |  |  |  |  |  |  |  |  |  |  |  |  |  | Ki [4]: 3.58 nM; Ki [5]: > 10000 nM; Ki [6]: 505 nM
7 | CN([11CH3])Cc1ccccc1Sc1ccc(F)cc1N [[^11C]AFA, [^11C]2-[2-(Dimethylaminomethyl)phenylthio]-5-fluorophenylamine] | 0.26 ± 0.10 | 0.35 ± 0.12 | 0.70 ± 0.25 | 0.48 ± 0.17 | 0.55 ± 0.18 | 0.54 ± 0.18 | 0.60 ± 0.24 | 0.08 ± 0.01 | 0.14 ± 0.02 | 0.49 ± 0.06 | 0.34 ± 0.02 | 0.47 ± 0.06 | 0.38 ± 0.14 | 0.44 ± 0.05 | 0.06 ± 0.01 | 0.09 ± 0.02 | 0.29 ± 0.05 | 0.24 ± 0.03 | 0.42 ± 0.06 | 0.26 ± 0.04 | % ID/g Thalamus ([1]; 60 min post-injection): 0.39 ± 0.04 % ID/g; Cerebellum V (nonspecific distribution volume) [2]: 13 ± 3 mL/g; Clearance [3]: 54 ± 6 L/h
8 | CN(C)Cc1ccccc1Sc1ccc(F)cc1N [AFA, 2-(2-(Dimethylaminomethyl)phenylthio)-5-fluorophenylamine] |  |  |  |  |  |  |  |  |  |  |  |  |  |  |  |  |  |  |  |  | Ki ([4]; read-out: Ki SERT): 1.46 nM; Ki [5]: > 10000 nM; Ki [6]: 142 nM
9 | CN(C)Cc1ccccc1Sc1ccc(CC[18F])cc1N [[^18F]AFE, [^18F]2-[2-(Dimethylaminomethyl)phenylthio]-5-(2-fluoroethyl)phenylamine] | 0.25 ± 0.01 | 0.28 ± 0.02 | 0.62 ± 0.08 | 0.38 ± 0.03 | 0.51 ± 0.05 | 0.51 ± 0.05 | 0.58 ± 0.08 | 0.13 ± 0.03 | 0.13 ± 0.01 | 0.32 ± 0.01 | 0.27 ± 0.04 | 0.41 ± 0.03 | 0.33 ± 0.01 | 0.39 ± 0.01 | 0.07 ± 0.02 | 0.06 ± 0.01 | 0.19 ± 0.04 | 0.17 ± 0.04 | 0.24 ± 0.04 | 0.21 ± 0.05 | % ID/g Thalamus ([1]; 60 min post-injection): 0.27 ± 0.04 % ID/g; % ID/g Blood ([1]; 90 min post-injection): 0.04 ± 0.01 % ID/g; % ID/g Cerebellum ([1]; 90 min post-injection): 0.03 ± 0.01 % ID/g; % ID/g Frontal Ctx. ([1]; 90 min post-injection): 0.08 ± 0.01 % ID/g; % ID/g Hippocamp. ([1]; 90 min post-injection): 0.09 ± 0.01 % ID/g; % ID/g Hypothal. ([1]; 90 min post-injection): 0.14 ± 0.02 % ID/g; % ID/g Striatum ([1]; 90 min post-injection): 0.10 ± 0.02 % ID/g; % ID/g Thalamus ([1]; 90 min post-injection): 0.17 ± 0.02 % ID/g; % ID/g Blood ([1]; 120 min post-injection): 0.02 ± 0.01 % ID/g; % ID/g Cerebellum ([1]; 120 min post-injection): 0.02 ± 0.00 % ID/g; % ID/g Frontal Ctx. ([1]; 120 min post-injection): 0.06 ± 0.00 % ID/g; % ID/g Hippocamp. ([1]; 120 min post-injection): 0.07 ± 0.00 % ID/g; % ID/g Hypothal. ([1]; 120 min post-injection): 0.10 ± 0.01 % ID/g; % ID/g Striatum ([1]; 120 min post-injection): 0.08 ± 0.01 % ID/g; % ID/g Thalamus ([1]; 120 min post-injection): 0.13 ± 0.02 % ID/g; Cerebellum V (nonspecific distribution volume) [2]: 19 mL/g; Clearance [3]: 71 L/h
